# Measurements published in the COVID Moonshot data (paper PMC11187573), “Identification of SARS-CoV-2 Mpro inhibitors through deep reinforcement learning for de novo drug design and computational chemistry approaches” (RSC Medicinal Chemistry, 2024).
# Columns and labels:
# [1] = molecular target: SARS-CoV-2 Main Protease (SARS-CoV-2) (UniProt P0DTD1)
# [2] = molecular target: SARS-CoV-2 Main Protease (SARS-CoV-2) (UniProt P0DTD1); remark: listed apart in the source
SMILES,relative solubility at 20 uM,relative solubility at 100 uM,inhibition ([1]; 20.0 µM) [%],inhibition ([1]; 50.0 µM) [%],inhibition ([2]; 20.0 µM) [%],inhibition ([2]; 50.0 µM) [%],IC50 [2] [µM],IC50 [1] [µM]
N#Cc1ccc(NC(=O)Nc2cccnc2)cc1,1,1,5.82,11.6,0,–,–,–
C=CC(=O)N(c1ccc(C2(C)CC2)cc1)C(C(=O)Nc1c(C)cccc1CC)c1cccnc1 (stereo unspecified),0.8,0.68,–,20.9,0,20.4,–,–
C=CC(=O)N(c1ccc(C(C)(C)C)cc1)C(C(=O)NC(C)(C)C)c1cncc(OC)c1C (stereo unspecified),0.99,0.95,8.6,28.6,8.1,39,–,–
O=C(Cc1cccc(Cl)c1)Nn1cnnc1,1,1,-9.88,-21.6,–,0,–,–
Cc1ccncc1NC(=O)[C@@]12COC[C@@H]1C2 (stereo in doubt),1,1,-0.441,-2.2,–,0,–,–
Cc1cc2c(cc1C)[C@H](C(=O)Nc1cncnc1-n1cccn1)CO2 (stereo in doubt),0.82,0.76,-1.2,-9.4,–,0,–,–
Cc1ccc(NC2CCN(c3ccc(S(N)(=O)=O)cc3)CC2)cc1,0.92,0.84,2.67,5.62,28.4,40,–,–
COc1cc(Cl)cc(OC(=O)Nc2cccnc2)c1,1,1,–,–,–,–,–,–
C=CC(=O)N(c1ccc2ncsc2c1)C(C(=O)NC(C)(C)C)c1cccnc1 (stereo unspecified),1,1,9.29,0.772,0,–,–,–
C=CC(=O)N(C(C(=O)NC(C)(C)C)c1cccnc1)C1CC12CC(C)(C)C2 (stereo unspecified),1,0.99,13,15.5,–,3.54,–,–
C=CC(=O)N(c1ccc(C(C)(C)C)cc1)C(C(=O)NC1CCCC1)c1cccnc1 (stereo unspecified),1.01,1,-10.5,-12.8,0,1.68,–,–
C=CC(=O)N(c1ccc(C(C)(C)C)cc1)C(C(=O)NCc1ccc(F)cc1)c1cccnc1 (stereo unspecified),0.98,0.66,51.2,76.4,79.3,100,10.5,–
C=CC(=O)N(c1ccc2ncsc2c1)C(C(=O)Nc1ccc(OC)cc1C)c1cccnc1 (stereo unspecified),0.94,0.92,3.21,11.3,0,–,–,–
C=CC(=O)N(c1ccc(C(C)OC)cc1)C(C(=O)Nc1ccccc1Br)c1cccnc1 (stereo unspecified),0.89,0.84,3.04,9.73,0,–,–,–
Cc1ccncc1NC(=O)Cc1cccc(Cl)c1,1,1,–,–,–,–,–,–
Cn1nnnc1NC(=O)Cc1csc(C(C)(C)C)n1,0.99,1,1.85,5.13,–,0,–,–
C=CC(=O)N(c1ccc(C(C)(C)C)cc1)C(C(=O)NC1CCOCC1)c1cccnc1 (stereo unspecified),0.99,1,9.01,0.668,0.841,31.1,–,–
C=CC(=O)N(c1ccc(C(C)(C)C)cc1)C(C(=O)Nc1ccc(OC)cc1)c1cccnc1 (stereo unspecified),0.95,0.71,–,12,0,0,–,–
C=CC(=O)N(c1cc(C(C)(C)C)on1)C(C(=O)Nc1ccc(OC)cc1C)c1cccnc1 (stereo unspecified),1,0.91,12.9,23.4,14.3,–,–,–
COc1cccc(NC(=O)Nc2cccc(C#N)c2)c1,0.96,0.94,5.11,9.79,0,2.48,–,–
CNS(=O)(=O)c1ccc(C(C)NC(=O)NC(C)(C)C)cc1 (stereo unspecified),1,1,-0.809,-0.25,0,0,–,–
O=C(Cc1ccc2ccccc2c1)Nc1cc(C(F)(F)F)ccn1,0.9,0.38,-2.55,3.43,11,29.3,–,–
O=C(Cc1ccc(Cl)s1)Nc1cccnc1,1,1,0.922,11.5,0,–,–,–
CC(C(=O)Nc1cccc(NC2CCCC2)c1)c1cnccn1 (stereo unspecified),1,0.98,-2.77,0.913,0,-2.15,–,–

SMILES,relative solubility at 20 uM,relative solubility at 100 uM,inhibition ([1]; 20.0 µM) [%],inhibition ([1]; 50.0 µM) [%],inhibition ([2]; 20.0 µM) [%],inhibition ([2]; 50.0 µM) [%],IC50 [2] [µM],IC50 [1] [µM]
O=C(NCc1cnn2ccccc12)c1cccnc1OCCO,1,1.01,-18.2,-28.9,0,0,–,–
Cc1noc([C@@H](C)S(=O)(=O)Cc2cccc(C(F)(F)F)c2)n1 (stereo in doubt),1.01,1,-7.05,-6.94,–,0,–,–
Cc1ccncc1NC(=O)Cc1cccc(OC(F)(F)F)c1,0.98,0.98,-3.16,-22.5,–,12.6,–,–
Cc1ccc(O)cc1NC(=O)C(C)(C)c1cccc(F)c1,1,0.92,1.12,-11,–,-0.631,–,–
COc1ccncc1NC(=O)C(C)(C)c1cc(F)cc(C#N)c1,0.99,1,20,30.8,–,40.6,–,–
C#CCN1CCN(C(=O)C=C)CC1,1.01,1.01,-18.6,-15,3.23,–,–,–
C=CC(=O)N(C(C(=O)NC(C)(C)C)c1cccnc1)[C@@H]1C[C@@H]1c1ccccc1 (stereo in doubt),0.97,0.88,-14.4,-6.46,0,–,–,–
O=C(CCl)N1CCN(S(=O)(=O)c2cccs2)CC1,1,1,99.3,99.6,97.9,97.8,0.557,–
CS(=O)(=O)N(CCc1ccccc1)CC1CCN(C(=O)CCl)CC1,0.96,0.89,23.9,26.1,–,73.3,–,–
O=C(CCl)N1CCN(Cc2cccc3ccccc23)CC1,0.99,0.98,–,98.6,100,100,0.9,–
O=C(Cc1ccccc1OC1CCOC1)OCc1cnn[nH]1 (stereo unspecified),1,1,–,20.7,0,0,–,–
CN(C(=O)Cn1nnc2ccccc21)c1ccc(Oc2ccc(C(F)(F)F)cn2)cc1,0.98,0.87,30.2,59.4,–,19.2,–,–
C=C1CC1C(=O)NC(C)c1ccc(S(=O)(=O)NC)cc1 (stereo unspecified),1,1,-2.67,-0.972,0,0,–,–
Cc1ccc(NC(=O)Nc2cccnc2)s1,1,0.96,1.9,11.3,2.62,28.6,–,–
C=CC(=O)N(c1ccc(C(C)(C)C)cc1)C(C(=O)NCCc1cccc(F)c1)c1cncc(C#N)c1 (stereo unspecified),0.57,0.46,49.6,87.1,–,89.2,2.47,–
COc1c(NC(=O)Cc2cccc(Cl)c2Cl)c(C)nn1C,1,1.01,2.78,2.19,–,0,–,–
C=CC(=O)N1CCN(S(=O)(=O)c2ccccc2-c2ccc(Nc3ccc(C#N)cn3)cc2)CC1,0.75,0.61,-11.3,-6.3,–,0,–,–
CC(=O)N1CCN(Cc2cn(-c3cccc(S(N)(=O)=O)c3)nn2)CC1,0.95,0.97,-2.75,1.36,2.3,5.73,–,–
CN1C(=O)/C(=N\NC(=O)c2ccc3c(c2)OCO3)c2ccccc21,0.97,0.75,-16.9,-60.6,–,-12.8,–,–
C=CC(=O)N(c1cc(C(C)(C)C)on1)C(C(=O)NC(C)(C)C)c1cccnc1 (stereo unspecified),0.98,0.91,7.86,16.1,28.7,–,–,–
CN(C)C(=O)C[C@@H]1CN(C(=O)c2cnn3c2CCC3)c2ccc(Cl)cc21 (stereo in doubt),1,1,-17.5,-10.8,0,–,–,–
C=CC(=O)N(c1ccc(C(C)(C)C)cc1)C(C(=O)NC(C)CC)c1cccnc1 (stereo unspecified),1,1,16.8,32.5,3.71,23.9,–,–
O=C(CCl)Nc1cccc(N2CCCC2=O)c1,1,1,27.1,51.4,–,–,–,–
COc1ccccc1OCCN(C)C(=O)c1cc(=O)[nH]c2ccc(Cl)cc12,1,0.99,0.453,4.43,–,0,–,–

SMILES,relative solubility at 20 uM,relative solubility at 100 uM,inhibition ([1]; 20.0 µM) [%],inhibition ([1]; 50.0 µM) [%],inhibition ([2]; 20.0 µM) [%],inhibition ([2]; 50.0 µM) [%],IC50 [2] [µM],IC50 [1] [µM]
O=S1(=O)CCC(N2CCN(c3nc(-c4cccnc4)nc4ccccc34)CC2)C1 (stereo unspecified),1,0.94,13,14.1,0,0,–,–
C=CC(=O)N(c1ccc(C(C)(C)C)cc1)C(C(=O)N[C@H]1CC[C@@H](C(=O)OC)C1)c1cccnc1 (stereo in doubt),1,0.98,7.31,22.2,0,6.96,–,–
O=C(CCl)N1CCN(Cc2cccs2)CC1,1,1,94.5,99,–,–,–,–
O=C(Nc1cnccc1CO)C1CCOc2ccc(Cl)cc21 (stereo unspecified),0.94,0.93,–,–,–,–,–,–
N#Cc1cccc(C2CN(C(=O)CCl)Cc3ccccc32)c1 (stereo unspecified),1,0.99,98.8,95.3,–,–,–,–
CCn1c(CSc2nc(C)c(C)n2CC2CCCO2)nc2cc(S(=O)(=O)N(C)C)ccc21 (stereo unspecified),0.85,0.84,-23.6,-3.59,–,–,–,–
Cc1ccncc1NC(=O)Cc1cc(Cl)cc(OC2CC(=O)N2)c1 (stereo unspecified),0.99,1,–,–,–,–,–,–
O=C(CCl)N1CCN(Cc2ccsc2)CC1,1,0.99,98.8,99.4,–,–,–,–
O=C(/C=C/C=C/c1ccc2c(c1)OCO2)N1CCCCC1,1,0.97,–,–,0,–,–,–
C=CC(=O)N1CC(NCC2=CNC3C=CC(C#N)=CC23)C1 (stereo unspecified),1,0.95,–,–,–,–,–,–
CCOc1ccccc1CN1C(=O)C(=O)c2cc(Br)ccc21,–,–,0.566,3.64,–,72.2,12.4,–
Cc1cc([C@H](C)C(=O)O)cc2[nH]c3ccc(Cl)cc3c12 (stereo in doubt),–,–,0.304,3.37,–,9.04,–,–
Cc1cc(S(=O)(=O)c2c([N+](=O)[O-])cc(C(F)(F)F)cc2[N+](=O)[O-])c(Cl)cc1Cl,–,–,–,9.61,–,34.8,–,–
O=C(NCCN1CCN(C(=O)CCl)CC1)c1cccc2ccccc12,–,–,6.97,4.69,–,23.8,–,–
CCOC(=O)c1cc(-c2ccccc2)sc1NC(=O)Cc1csc(-c2ccccc2)n1,–,–,91.8,97.9,–,–,2.69,–
C=CC(=O)N(c1ccc2c(c1)C=CCCC2)C(C(=O)NC(C)(C)C)c1cccnc1 (stereo unspecified),–,–,12.4,25.9,–,0,–,–
C#Cc1ncccc1NC(=O)Cc1cccc(Cl)c1,–,–,-2.01,3.62,–,7.93,–,–
Cc1nnc(NC(=O)[C@@H]2COc3ccc(Cl)cc32)n1C1CC1 (stereo in doubt),1,1,–,–,–,–,–,–
CC(C)(C)c1ccc(-c2nnc(Sc3cnc([N+](=O)[O-])s3)o2)cc1,–,–,8.3,69.9,–,–,0.164,4.16
Nc1ncc(S(=O)(=O)c2ccc(Cl)cc2)c(N)n1,–,–,–,-22.1,–,0,–,–
CNc1ccc(N(Cc2ccsc2)C(=O)Cn2nnc3ccccc32)cc1,0.99,0.77,57.1,82.6,–,–,–,–
Cc1cc(Cl)cc(CC2CCN(C(=O)CCl)CC2)c1,–,–,95.1,98.3,–,100,1.24,–
